Results: ChEMBL document CHEMBL5647694, “Novel orally bioavailable EZH1/2 dual inhibitors with greater antitumor efficacy than an EZH2 selective inhibitor” (Cancer Sci, 2017)
Calls of active or inactive are those of the source. The calls are words filed in the database; no cut-off is given here.

What was measured:
[1] = Toxicity in Crl:CD Sprague-Dawley rat assessed as atrophy of spleen at 100 mg/kg, po administered daily for 14 days by hematoxylin and eosin staining based analysis; assay type: organism-based; details: in vivo, 336 h, time 14 day
[2] = Mean AUC (0-24 hrs) in Crl:CD Sprague-Dawley rat at 100 mg/kg, po administered daily for 14 days by LC/MS/MS analysis; assay type: ADME, organism-based; details: in vivo, time 14 day
[3] = Toxicity in Crl:CD Sprague-Dawley rat assessed as albumin level in blood at 100 mg/kg, po administered daily for 14 days (reference value: 3.85+/-0.129 g/dL); assay type: organism-based; details: in vivo, 336 h, time 14 day
[4] = Toxicity in Crl:CD Sprague-Dawley rat assessed as lymphocyte count in blood at 100 mg/kg, po administered daily for 14 days (reference value: 7.37+/-1.6 10^3/uL); assay type: organism-based; details: in vivo, 336 h, time 14 day
KARPAS-422 = experiment: Antitumor activity against human KARPAS-422 cells xenografted in CB17/Icr-Prkdcscid/CrlCrlj mouse assessed as inhibition of tumor growth at 50 mg/kg, po BID for 14 days; assay type: functional, organism-based; details: time 14.0 day
[5] = Antitumor activity against human HUG1N cells assessed as cell growth inhibition treated for 10 to 15 days; assay type: functional; details: time 10-15 day
HCC1395 = experiment: Antitumor activity against human HCC1395 cells assessed as cell growth inhibition treated for 10 to 15 days; assay type: functional; details: time 10-15 day
SW48 = experiment: Antitumor activity against human SW48 cells assessed as cell growth inhibition treated for 10 to 15 days; assay type: functional; details: time 10-15 day
SUP-B15 = experiment: Antitumor activity against human SUP-B15 cells assessed as cell growth inhibition treated for 10 to 15 days; assay type: functional; details: time 10-15 day
SNU-398 = experiment: Antitumor activity against human SNU-398 cells assessed as cell growth inhibition treated for 10 to 15 days; assay type: functional; details: time 10-15 day
HCT-15 = experiment: Antitumor activity against human HCT-15 cells assessed as cell growth inhibition treated for 10 to 15 days; assay type: functional; details: time 10-15 day
MDA-MB-231 = experiment: Antitumor activity against human MDA-MB-231 cells assessed as cell growth inhibition treated for 10 to 15 days; assay type: functional; details: time 10-15 day
LS-411N = experiment: Antitumor activity against human LS-411N cells assessed as cell growth inhibition treated for 10 to 15 days; assay type: functional; details: time 10-15 day
NCI-H522 = experiment: Antitumor activity against human NCI-H522 cells assessed as cell growth inhibition treated for 10 to 15 days; assay type: functional; details: time 10-15 day
RMG-I = experiment: Antitumor activity against human RMG-I cells assessed as cell growth inhibition treated for 10 to 15 days; assay type: functional; details: time 10-15 day
CCRF-CEM = experiment: Antitumor activity against human CCRF-CEM cells assessed as cell growth inhibition treated for 10 to 15 days; assay type: functional; details: time 10-15 day
[6] = target: Histone-lysine N-methyltransferase, H3 lysine-36 specific (Homo sapiens, UniProt Q96L73); experiment: Inhibition of human NSD1 using Nucleosomes and [3H]SAM as substrate incubated for 30 mins to 1 hr by HotSpot kinase assay
HCC1419 = experiment: Antitumor activity against human HCC1419 cells assessed as cell growth inhibition treated for 10 to 15 days; assay type: functional; details: time 10-15 day
[7] = test system: KATO III stomach cancer cell line; experiment: Antitumor activity against human KATO III stomach cancer cell line assessed as cell growth inhibition treated for 10 to 15 days; assay type: functional; details: time 10-15 day
SNU-5 = experiment: Antitumor activity against human SNU-5 cells assessed as cell growth inhibition treated for 10 to 15 days; assay type: functional; details: time 10-15 day
NCI-H2081 = experiment: Antitumor activity against human NCI-H2081 cells assessed as cell growth inhibition treated for 10 to 15 days; assay type: functional; details: time 10-15 day
[8] = target: Protein arginine N-methyltransferase 1 (Homo sapiens, UniProt Q99873); experiment: Inhibition of human PRMT1 using Histone H4 and [3H]SAM as substrate incubated for 30 mins to 1 hr by HotSpot kinase assay
RPMI-8226 = experiment: Antitumor activity against human RPMI-8226 cells assessed as cell growth inhibition treated for 10 to 15 days; assay type: functional; details: time 10-15 day
[9] = target: DNA (cytosine-5)-methyltransferase 3A (Homo sapiens, UniProt Q9Y6K1); experiment: Inhibition of human DNMT3a using lambda DNA and [3H]SAM as substrate incubated for 30 mins to 1 hr by HotSpot kinase assay
KMS-11 = experiment: Antitumor activity against human KMS-11 cells assessed as cell growth inhibition treated for 10 to 15 days; assay type: functional; details: time 10-15 day
[10] = target: Histone-lysine N-methyltransferase NSD2 (Homo sapiens, UniProt O96028, E1099K); experiment: Inhibition of human NSD2 E1099K mutant using Nucleosomes and [3H]SAM as substrate incubated for 30 mins to 1 hr by HotSpot kinase assay
MDA-MB-134-VI = experiment: Antitumor activity against human MDA-MB-134-VI cells assessed as cell growth inhibition treated for 10 to 15 days; assay type: functional; details: time 10-15 day
SK-OV-3 = experiment: Antitumor activity against human SK-OV-3 cells assessed as cell growth inhibition treated for 10 to 15 days; assay type: functional; details: time 10-15 day
MC116 = experiment: Antitumor activity against human MC116 cells assessed as cell growth inhibition treated for 10 to 15 days; assay type: functional; details: time 10-15 day
[11] = Antitumor activity against human NCI-H1781 cells assessed as cell growth inhibition treated for 10 to 15 days; assay type: functional; details: time 10-15 day
[12] = target: Histone-lysine N-methyltransferase 2B (Homo sapiens, UniProt Q9UMN6); experiment: Inhibition of human MLL4 using Core Histone and [3H]SAM as substrate incubated for 30 mins to 1 hr by HotSpot kinase assay
TALL-1 = experiment: Antitumor activity against human TALL-1 cells assessed as cell growth inhibition treated for 10 to 15 days; assay type: functional; details: time 10-15 day
SNU-423 = experiment: Antitumor activity against human SNU-423 cells assessed as cell growth inhibition treated for 10 to 15 days; assay type: functional; details: time 10-15 day
HCC70 = experiment: Antitumor activity against human HCC70 cells assessed as cell growth inhibition treated for 10 to 15 days; assay type: functional; details: time 10-15 day
VCaP = experiment: Antitumor activity against human VCaP cells assessed as cell growth inhibition treated for 10 to 15 days; assay type: functional; details: time 10-15 day
HCT-116 = experiment: Antitumor activity against human HCT-116 cells assessed as cell growth inhibition treated for 10 to 15 days; assay type: functional; details: time 10-15 day
TCC-SUP = experiment: Antitumor activity against human TCC-SUP cells assessed as cell growth inhibition treated for 10 to 15 days; assay type: functional; details: time 10-15 day
HCC1954 = experiment: Antitumor activity against human HCC1954 cells assessed as cell growth inhibition treated for 10 to 15 days; assay type: functional; details: time 10-15 day
Granta-519 = experiment: Antitumor activity against human Granta-519 cells assessed as cell growth inhibition treated for 10 to 15 days; assay type: functional; details: time 10-15 day
MOLM-14 = experiment: Antitumor activity against human MOLM-14 cells assessed as cell growth inhibition treated for 10 to 15 days; assay type: functional; details: time 10-15 day
NAMALVA = experiment: Antitumor activity against human NAMALVA cells assessed as cell growth inhibition treated for 10 to 15 days; assay type: functional; details: time 10-15 day
EB2 = experiment: Antitumor activity against human EB2 cells assessed as cell growth inhibition treated for 10 to 15 days; assay type: functional; details: time 10-15 day
HuT78 = experiment: Antitumor activity against human HuT78 cells assessed as cell growth inhibition treated for 10 to 15 days; assay type: functional; details: time 10-15 day

Sequence of Histone-lysine N-methyltransferase NSD2 (O96028 whole entry E1099K): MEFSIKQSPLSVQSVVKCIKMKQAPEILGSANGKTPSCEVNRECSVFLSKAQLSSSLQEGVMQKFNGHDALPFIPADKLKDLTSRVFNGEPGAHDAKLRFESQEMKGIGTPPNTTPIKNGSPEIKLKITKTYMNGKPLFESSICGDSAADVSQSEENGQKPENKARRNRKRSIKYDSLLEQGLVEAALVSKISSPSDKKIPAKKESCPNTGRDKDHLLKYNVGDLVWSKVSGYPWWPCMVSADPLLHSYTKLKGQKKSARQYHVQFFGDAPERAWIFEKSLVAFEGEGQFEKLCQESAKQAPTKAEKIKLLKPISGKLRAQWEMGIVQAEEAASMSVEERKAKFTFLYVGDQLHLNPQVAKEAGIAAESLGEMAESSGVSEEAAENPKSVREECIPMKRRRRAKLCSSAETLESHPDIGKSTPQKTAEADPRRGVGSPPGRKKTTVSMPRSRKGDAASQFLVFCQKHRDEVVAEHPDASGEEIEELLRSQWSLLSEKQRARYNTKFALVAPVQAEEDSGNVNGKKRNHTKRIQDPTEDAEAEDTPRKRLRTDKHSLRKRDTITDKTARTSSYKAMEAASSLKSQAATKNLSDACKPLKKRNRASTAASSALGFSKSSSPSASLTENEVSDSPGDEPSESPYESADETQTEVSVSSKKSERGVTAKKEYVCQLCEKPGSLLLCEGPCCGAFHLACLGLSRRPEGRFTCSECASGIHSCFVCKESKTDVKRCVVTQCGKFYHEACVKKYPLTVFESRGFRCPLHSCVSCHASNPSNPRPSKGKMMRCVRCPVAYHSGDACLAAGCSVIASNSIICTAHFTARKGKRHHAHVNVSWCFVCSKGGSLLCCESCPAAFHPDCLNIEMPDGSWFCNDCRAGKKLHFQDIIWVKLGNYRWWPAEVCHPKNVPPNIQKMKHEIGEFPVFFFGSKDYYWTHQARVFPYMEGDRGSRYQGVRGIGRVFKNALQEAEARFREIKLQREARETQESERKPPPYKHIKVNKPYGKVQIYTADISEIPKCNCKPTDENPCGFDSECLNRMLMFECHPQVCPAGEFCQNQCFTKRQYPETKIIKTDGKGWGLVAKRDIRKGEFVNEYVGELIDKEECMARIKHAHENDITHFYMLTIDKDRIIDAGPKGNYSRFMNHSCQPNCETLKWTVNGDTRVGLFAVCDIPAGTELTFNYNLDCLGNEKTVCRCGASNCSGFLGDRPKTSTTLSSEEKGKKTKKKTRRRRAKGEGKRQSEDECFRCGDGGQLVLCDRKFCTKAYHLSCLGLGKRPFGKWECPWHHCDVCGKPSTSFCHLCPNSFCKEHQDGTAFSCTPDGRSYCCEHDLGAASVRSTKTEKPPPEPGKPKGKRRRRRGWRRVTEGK
Sequence of Histone-lysine N-methyltransferase, H3 lysine-36 specific (Q96L73 whole entry): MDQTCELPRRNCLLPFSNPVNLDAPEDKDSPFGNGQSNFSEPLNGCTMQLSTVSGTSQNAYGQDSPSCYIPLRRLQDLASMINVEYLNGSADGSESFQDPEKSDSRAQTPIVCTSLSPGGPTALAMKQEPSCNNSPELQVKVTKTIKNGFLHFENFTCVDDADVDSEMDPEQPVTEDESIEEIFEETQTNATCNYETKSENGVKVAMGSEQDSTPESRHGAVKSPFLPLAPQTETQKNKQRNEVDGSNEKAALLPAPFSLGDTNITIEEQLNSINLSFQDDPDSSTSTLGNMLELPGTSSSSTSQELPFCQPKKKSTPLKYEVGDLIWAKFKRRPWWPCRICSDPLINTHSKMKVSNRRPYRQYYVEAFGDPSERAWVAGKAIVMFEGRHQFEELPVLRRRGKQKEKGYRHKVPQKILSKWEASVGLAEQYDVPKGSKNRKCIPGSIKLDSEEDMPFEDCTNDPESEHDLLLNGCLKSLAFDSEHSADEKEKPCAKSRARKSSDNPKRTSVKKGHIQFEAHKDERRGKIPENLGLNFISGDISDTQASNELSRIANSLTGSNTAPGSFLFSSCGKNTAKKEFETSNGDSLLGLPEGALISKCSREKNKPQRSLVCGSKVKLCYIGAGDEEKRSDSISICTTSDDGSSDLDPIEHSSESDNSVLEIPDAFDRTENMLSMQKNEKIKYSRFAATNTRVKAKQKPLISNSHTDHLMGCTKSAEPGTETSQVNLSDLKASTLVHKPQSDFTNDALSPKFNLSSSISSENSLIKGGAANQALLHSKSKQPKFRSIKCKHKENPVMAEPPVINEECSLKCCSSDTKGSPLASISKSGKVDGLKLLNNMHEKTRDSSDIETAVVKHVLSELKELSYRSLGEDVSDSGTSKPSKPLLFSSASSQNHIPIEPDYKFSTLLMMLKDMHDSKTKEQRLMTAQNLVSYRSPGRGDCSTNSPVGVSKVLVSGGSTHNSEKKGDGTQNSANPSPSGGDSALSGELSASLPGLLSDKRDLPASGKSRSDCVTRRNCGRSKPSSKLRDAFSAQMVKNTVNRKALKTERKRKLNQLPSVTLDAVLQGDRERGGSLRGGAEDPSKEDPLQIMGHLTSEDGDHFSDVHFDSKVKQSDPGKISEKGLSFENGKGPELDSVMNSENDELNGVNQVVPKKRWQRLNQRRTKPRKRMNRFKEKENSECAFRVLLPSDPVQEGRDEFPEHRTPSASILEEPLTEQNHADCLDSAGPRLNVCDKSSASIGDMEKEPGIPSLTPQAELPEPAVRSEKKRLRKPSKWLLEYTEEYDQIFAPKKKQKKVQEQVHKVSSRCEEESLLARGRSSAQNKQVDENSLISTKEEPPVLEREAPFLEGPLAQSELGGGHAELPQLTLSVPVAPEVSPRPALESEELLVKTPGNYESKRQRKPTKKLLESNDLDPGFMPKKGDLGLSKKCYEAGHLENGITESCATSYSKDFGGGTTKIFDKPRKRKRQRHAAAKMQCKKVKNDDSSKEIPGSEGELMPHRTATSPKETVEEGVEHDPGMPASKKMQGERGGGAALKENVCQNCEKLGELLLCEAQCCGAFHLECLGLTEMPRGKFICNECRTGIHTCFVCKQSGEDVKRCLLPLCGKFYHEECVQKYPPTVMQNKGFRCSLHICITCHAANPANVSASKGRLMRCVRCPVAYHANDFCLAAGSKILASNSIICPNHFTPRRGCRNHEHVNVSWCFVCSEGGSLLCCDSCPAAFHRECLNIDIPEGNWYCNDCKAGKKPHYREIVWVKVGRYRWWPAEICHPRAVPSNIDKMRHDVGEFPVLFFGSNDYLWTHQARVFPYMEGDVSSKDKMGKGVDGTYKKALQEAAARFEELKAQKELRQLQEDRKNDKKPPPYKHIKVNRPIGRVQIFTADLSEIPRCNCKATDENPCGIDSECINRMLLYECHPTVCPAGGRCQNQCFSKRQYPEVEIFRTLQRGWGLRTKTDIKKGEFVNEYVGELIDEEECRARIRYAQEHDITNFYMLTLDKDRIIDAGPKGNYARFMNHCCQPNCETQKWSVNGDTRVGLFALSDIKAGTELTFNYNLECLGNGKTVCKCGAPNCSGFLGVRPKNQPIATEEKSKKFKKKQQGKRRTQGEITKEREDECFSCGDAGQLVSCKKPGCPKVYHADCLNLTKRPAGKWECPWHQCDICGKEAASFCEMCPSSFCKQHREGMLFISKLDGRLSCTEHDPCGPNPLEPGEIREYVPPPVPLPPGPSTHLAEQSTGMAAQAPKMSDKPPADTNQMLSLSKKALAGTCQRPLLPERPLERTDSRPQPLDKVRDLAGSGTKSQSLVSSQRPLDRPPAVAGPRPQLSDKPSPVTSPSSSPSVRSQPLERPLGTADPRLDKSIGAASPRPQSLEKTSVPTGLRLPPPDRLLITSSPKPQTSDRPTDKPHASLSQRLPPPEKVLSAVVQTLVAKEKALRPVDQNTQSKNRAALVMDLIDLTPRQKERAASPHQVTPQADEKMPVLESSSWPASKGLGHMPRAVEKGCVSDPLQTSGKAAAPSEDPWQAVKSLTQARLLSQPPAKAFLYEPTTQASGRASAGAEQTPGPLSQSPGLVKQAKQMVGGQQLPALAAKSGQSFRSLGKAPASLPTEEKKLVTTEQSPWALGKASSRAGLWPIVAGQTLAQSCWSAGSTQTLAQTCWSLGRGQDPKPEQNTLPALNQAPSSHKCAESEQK
Sequence of DNA (cytosine-5)-methyltransferase 3A (Q9Y6K1 whole entry, looked up): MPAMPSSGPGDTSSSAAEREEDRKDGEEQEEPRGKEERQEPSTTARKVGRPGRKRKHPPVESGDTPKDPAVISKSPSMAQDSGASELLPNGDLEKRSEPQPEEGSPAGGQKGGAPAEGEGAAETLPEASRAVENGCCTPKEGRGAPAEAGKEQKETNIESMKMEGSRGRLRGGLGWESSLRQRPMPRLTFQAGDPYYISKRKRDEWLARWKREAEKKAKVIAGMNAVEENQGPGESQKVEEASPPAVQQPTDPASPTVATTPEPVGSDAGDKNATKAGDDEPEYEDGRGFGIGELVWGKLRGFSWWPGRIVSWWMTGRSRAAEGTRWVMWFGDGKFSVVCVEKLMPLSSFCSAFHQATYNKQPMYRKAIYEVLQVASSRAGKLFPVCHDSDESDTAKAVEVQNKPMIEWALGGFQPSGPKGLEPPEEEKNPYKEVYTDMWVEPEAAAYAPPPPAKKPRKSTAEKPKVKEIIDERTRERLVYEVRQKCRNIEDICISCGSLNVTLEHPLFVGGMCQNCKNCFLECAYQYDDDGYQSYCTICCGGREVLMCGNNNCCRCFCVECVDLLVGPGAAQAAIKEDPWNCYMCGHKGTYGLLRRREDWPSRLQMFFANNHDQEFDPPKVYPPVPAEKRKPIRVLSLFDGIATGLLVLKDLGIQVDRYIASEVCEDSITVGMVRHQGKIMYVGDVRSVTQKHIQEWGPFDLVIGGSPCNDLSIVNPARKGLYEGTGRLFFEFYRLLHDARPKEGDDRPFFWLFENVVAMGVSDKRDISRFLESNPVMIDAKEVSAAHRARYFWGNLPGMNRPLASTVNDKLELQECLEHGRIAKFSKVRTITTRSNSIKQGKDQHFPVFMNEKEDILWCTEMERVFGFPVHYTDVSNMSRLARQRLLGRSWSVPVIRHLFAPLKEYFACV

In the case of `Cc1cc(C)c(CNC(=O)c2cc(Br)c3c(c2C)O[C@@](C)([C@H]2CC[C@H](N(C)C)CC2)O3)c(=O)[nH]1`, the Activity [1] is reported as “Toxic”, the AUC at 336 h [2] is reported as 27.9 µM·h and the Activity [3] is reported as 3.75 g/dL. For the same compound, the Activity [4] was 3.67 10^3 /uL and the Activity (KARPAS-422) was “Active”.

Work on `Cc1cc(C)c(CNC(=O)c2cc(Cl)c3c(c2C)O[C@@](C)([C@H]2CC[C@H](N(C)C)CC2)O3)c(=O)[nH]1` [VALEMETOSTAT] yielded a GI50 [5] of 142 nM, a GI50 (HCC1395) of over 1000 nM and a GI50 (SW48) of over 1000 nM. It also gave a GI50 (SUP-B15) of 24.3 nM, a GI50 (SNU-398) of 2.07 nM and a GI50 (HCT-15) of over 1000 nM. It also gave a GI50 (MDA-MB-231) of over 1000 nM, a GI50 (LS-411N) of over 1000 nM and a GI50 (NCI-H522) of 460 nM. The GI50 (RMG-I) was over 1000 nM, the GI50 (CCRF-CEM) was over 1000 nM and the IC50 [6] was 100000 nM. It also gave a GI50 (HCC1419) of over 1000 nM, a GI50 [7] of 18.2 nM and a GI50 (SNU-5) of 52.4 nM. The GI50 (NCI-H2081) was 982 nM, the IC50 [8] was 100000 nM and the GI50 (RPMI-8226) was 1.91 nM. The IC50 [9] was 100000 nM, the GI50 (KMS-11) was 10.3 nM and the IC50 [10] was 100000 nM. The GI50 (MDA-MB-134-VI) was over 1000 nM, the GI50 (SK-OV-3) was over 1000 nM and the GI50 (MC116) was 50.4 nM. It also gave a GI50 [11] of over 1000 nM, an IC50 [12] of 100000 nM and a GI50 (TALL-1) of over 1000 nM. The GI50 (SNU-423) was over 1000 nM, the GI50 (HCC70) was over 1000 nM and the GI50 (VCaP) was 50.7 nM. The GI50 (HCT-116) was over 1000 nM, the GI50 (TCC-SUP) was over 1000 nM and the GI50 (HCC1954) was over 1000 nM. For the same compound, the GI50 (Granta-519) was over 1000 nM, the GI50 (MOLM-14) was 70 nM and the GI50 (NAMALVA) was over 1000 nM. For the same compound, the GI50 (EB2) was over 1000 nM and the GI50 (HuT78) was over 1000 nM.
